# Several values for one entry are separate records, joined by “and”; a condition that tells them apart may be missing. Equal entries are not always repeated. Entries after “also recorded” stand apart in the source; their conditions may differ.
# Experiments:
# TRAP5b [1] = test: Time course of substrate hydrolysis on O1A-coated plates (Example 1, FIG. 1); format: biochemical, human; conditions: for specific activity of TRAP5b relative to that of TRAP5a: pH 7.0, from FIG. 1; for hydrolysis of substrate by TRAP5b: serum-derived TRAP5b, neutral pH (7.0) in Example 1
# Procedure: (§1) Microtitre plates (Nunc Maxisorp) were coated with mouse anti-TRAP5 (clone O1A), from a solution of a 3.0 mg/L purified Mab IgG in 10 mM phosphate buffered saline (PBS), 100 μL per well and incubated overnight at room temperature. The coated plates were washed three times with 10 mM phosphate buffered saline, 0.05% Tween 20. A stabilising reagent of 5% lactose, 0.5% BSA was added, 250 μL per well, incubated for at least 10 minutes, then the liquid aspirated. The coated plates were dried overnight at 35° C. then stored at 2-8° C. protected from moisture.
# (§2) Serum-derived TRAP5a and TRAP5b were separated by ion exchange chromatography using a modification of the procedure described by Lam et al, Clin. Chem. 24(7):1105-1108, 1978. 100-500 mL human serum was adjusted to around pH 5.0 with 100% acetic acid, and optionally diluted with an equal volume of 10 mM sodium phosphate buffer, pH 4.9. After clarification by centrifugation and filtering, the acidified serum was applied to a 1 cm×100-150 cm column of CM-Sepharose (Sigma, part No CCF 100) and the column was developed with a linear NaCl gradient, from 150-800 mM. Fractions containing TRAP5a and TRAP5b activity were identified using a non-capture assay essentially as described by Lam et al Clin. Chem. 24(7):1105-1108, 1978. In some instances the fractions were further assayed for TRAP5 by the immunoassays described below. Fractions containing peak levels of TRAP5a or TRAP5b were separately pooled for further analysis.
# (§3) The TRAP5 protein concentration in the TRAP5a and TRAP5b preparations was determined by a sandwich immunoassay. 100-200 μL sample per well was applied to O1A-coated microtitre plates and incubated overnight at 4° C. The plate was washed three times with 10 mM phosphate buffered saline, 0.05% Tween 20, and 100-200 μL of a solution containing the rabbit anti-TRAP5 antibody at a dilution of 1:4000 was added per well. […] The reactions were stopped by the addition of 100 μL 0.5M HCl and the absorbance at 450 nm was measured. TRAP5 protein concentrations were calculated by reference to a calibration curve prepared from baculovirus-derived recombinant human TRAP5.
# (§4) To test for activity towards PTMP, 100 μL of a solution containing 6 mg/mL PTMP dissolved in 125 mM MOPS buffer, pH 7.0 was added per well and incubated for 0-40 min at 37° C. The reactions were stopped at the times indicated by the addition of 50 μL per well of 1M glycine/NaOH, pH11 and the absorbance at […] was measured. […] The reactions were stopped at the times indicated by the addition of 50 μL per well of 0.25 M NaOH and the absorbance at […] was measured.
# TRAP5b [2] = test: TRAP5 capture immunoassay, specific activity with each substrate (Example 3); format: biochemical, human; conditions: for Ratio 5B:5A of specific activity / TRAP5 Specific Activity 5B: pNPP at pH 6.1, PTMP and TTMP at pH 7.0; for specificity for TRAP5b over TRAP5a compared with the commercial pNPP based assay: relative to pNPP-based assay; for TRAP5 Specific Activity 5B: serum-derived TRAP5b
# Procedure: as §1, §2
# The TRAP5 protein concentration in the TRAP5a and TRAP5b preparations was determined by a sandwich immunoassay. 100-200 μL sample per well was applied to O1A-coated microtitre plates and incubated overnight at 4° C. The plate was washed three times with 10 mM phosphate buffered saline, 0.05% Tween 20, and 100-200 μL of a solution containing the rabbit anti-TRAP5 antibody at a dilution of 1:4000 was added per well. After 60 min incubation at ambient temperature the plate was washed as above and 100-200 μL of a solution containing anti-rabbit IgG-Horseradish peroxidase conjugate at a dilution of 1:5000 was added and incubated for 30 min at ambient temperature. After further washing as described above […] of TMB (BioFx Inc, part TMBW-0100-01) was added and incubated for 30 min at ambient temperature. The reactions were stopped by the addition of 100 μL 0.5M HCl and the absorbance at 450 nm was measured. TRAP5 protein concentrations were calculated by reference to a calibration curve prepared from baculovirus-derived recombinant human TRAP5.
# (§5) To test for activity towards PTMP, 100 μL of a solution containing 6 mg/mL PTMP dissolved in 125 mM MOPS buffer, pH 7.0 was added per well and incubated for 0-40 min at 37° C. The reactions were stopped at the times indicated by the addition of 50 μL per well of 1M glycine/NaOH, pH11 and the absorbance at […] was measured. To test for activity towards TTMP, 100 μL of a solution containing 5 mg/mL TTMP dissolved in 80 mM MOPS buffer, 10% ethanol, pH 7.0 was added per well and incubated for 0-40 min at 37° C. The reactions were stopped at the times indicated by the addition of 50 μL per well of 0.25 M NaOH and the absorbance at […] was measured.
# TRAP5a and TRAP5b preparations were prepared and quantified with respect to TRAP5 mass as described in Example 3. A set of TRAP5 calibrators was prepared by incubating 225 μg baculovirus-derived recombinant human TRAP with 12 U chymotrypsin for 6 h at ambient temperature, preparing a series of dilutions from this material and assigning TRAP5 concentrations (in U/L) to these dilutions using the commercial TRAP5b immunoassay based on WO1999/050662. The TRAP5a and TRAP5b preparations were assayed by a commercial TRAP5b immunoassay based on WO1999/050662 which uses pNPP as substrate at pH 6.1 with the modification that the chymotrypsin-treated calibrators described above were substituted for those provided by the manufacturer. […]
# TRAP5a [3] = biological target: T1, TRAP5a (Homo sapiens, UniProt P13686); test: pH vs activity profile (Example 2, FIG. 2); format: biochemical; conditions: substrate 6 mg/mL in MES or MOPS buffers
# T1 construct: Serum-derived TRAP5a and TRAP5b were separated by ion exchange chromatography; from tissue; host or cells: human serum
# T1 sequence (P13686 22-325): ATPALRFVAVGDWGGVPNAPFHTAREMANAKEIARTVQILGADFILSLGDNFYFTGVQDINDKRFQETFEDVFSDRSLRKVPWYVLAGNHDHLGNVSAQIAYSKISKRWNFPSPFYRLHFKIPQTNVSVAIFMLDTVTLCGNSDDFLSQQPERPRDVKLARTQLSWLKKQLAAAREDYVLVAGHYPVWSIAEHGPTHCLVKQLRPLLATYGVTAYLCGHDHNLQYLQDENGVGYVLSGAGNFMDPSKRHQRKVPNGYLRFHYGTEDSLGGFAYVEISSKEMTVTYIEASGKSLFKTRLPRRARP
# Procedure: (§6) Since TRAP5 is an acid phosphatase that normally is only active under acidic conditions, the relationship between TRAP5a and TRAP5b enzyme activity and substrate pH using PTMP as substrate over a range of pH values was investigated. The TRAP5 assays were performed essentially as described for Example 1, except that the PTMP substrate was dissolved at 6 mg/mL in a series of 100 mM MES or 100 mM MOPS buffers to give the pH values indicated.
# TRAP5b [4] = test: Activity with phthalein monophosphate esters at 0.47 mg/mL, pH 7.4 (Example 8); format: biochemical, human; parameters: 5b Activity: unit not given here; conditions: 0.47 mg/mL in 100 mM MES pH7.4
# Procedure: as §5
# (§7) Where phthalein monophosphate esters were not available commercially, the monophosphate esters were prepared by the method of Bulbenko & Woodbridge (U.S. Pat. No. 4,045,290) by reaction of the appropriate phthalein compound (from Sigma-Aldrich) with phosphorus oxychloride (CAS 10025-87-3), followed by hydrolysis and purification. The monophosphate esters were further purified before use by HPLC chromatography to remove un-reacted phthalein dye. HPLC column 10 mm×150 mm ACE 5 C18 (Advance Chromatography Technologies, UK), load solvent composition, 30% methanol and 70% water containing 0.1% trifluoroacetic acid (TFA); product was eluted by a gradient from 30% methanol 0.1% TFA to 100% methanol 0.1% TFA at 3 mL/minute over 45 minutes.
# (§8) Phthalein monophosphate esters prepared in Example 7 were diluted to 0.47 mg/mL in 100 mM MES pH7.4 buffer and applied to an assay as in Example 1.
# TRAP5a [5] = biological target: T1, TRAP5a; test: TRAP5 capture immunoassay, specific activity with each substrate (Example 3); format: biochemical; conditions: for TRAP5 Specific Activity 5A: serum-derived TRAP5a, pNPP at pH 6.1, PTMP and TTMP at pH 7.0
# Procedure: as §1, §2, §3, §4
# TRAP5a and TRAP5b preparations were prepared and quantified with respect to TRAP5 mass as described in Example 3. […]
# TRAP5a [6] = biological target: T1, TRAP5a; test: Activity with phthalein monophosphate esters at 0.47 mg/mL, pH 7.4 (Example 8); format: biochemical; parameters: unit not given beside the values; conditions: 0.47 mg/mL in 100 mM MES pH7.4
# Procedure: as §5, §7, §8
# TRAP5b [7] = test: pH vs activity profile (Example 2, FIG. 2); format: biochemical, human; conditions: substrate 6 mg/mL in MES or MOPS buffers
# Procedure: as §6
# TRAP5a [8] = biological target: T1, TRAP5a; test: Time course of substrate hydrolysis on O1A-coated plates (Example 1, FIG. 1); format: biochemical; conditions: serum-derived TRAP5a; neutral pH (7.0) in Example 1
# Procedure: Microtitre plates (Nunc Maxisorp) were coated with mouse anti-TRAP5 (clone O1A), from a solution of a 3.0 mg/L purified Mab IgG in 10 mM phosphate buffered saline (PBS), 100 μL per well and incubated overnight at room temperature. The coated plates were washed three times with 10 mM phosphate buffered saline, 0.05% Tween 20. A stabilising reagent of 5% lactose, 0.5% BSA was added, 250 μL per well, incubated for at least 10 minutes, then the liquid aspirated. The coated plates were dried overnight at 35° C. then stored at 2-8° C. protected from moisture. […]
# The TRAP5 protein concentration in the TRAP5a and TRAP5b preparations was determined by a sandwich immunoassay. […] The reactions were stopped by the addition of 100 μL 0.5M HCl and the absorbance at 450 nm was measured. TRAP5 protein concentrations were calculated by reference to a calibration curve prepared from baculovirus-derived recombinant human TRAP5.
# as §4
# TRAP5a [9] = biological target: T1, TRAP5a; test: Assay of CM-Sepharose fractions of normal human serum with pNPP- and PTMP-based assays (Example 4, FIG. 3); format: biochemical
# Description: TRAP5a and TRAP5b from normal human serum were separated on a CM-Sepharose column and the fractions assessed for TRAP5b using the pNPP and PTMP-based assays described in Example 3.
# TRAP5b [10] = conditions: WO1999/050662 (pNPP), EP1598670 (2-chloro-4-nitrophenylphosphate); cited from earlier work
Compound,specific activity of TRAP5b relative to that of TRAP5a (TRAP5b [1]),hydrolysis of substrate by TRAP5b (TRAP5b [1]),Ratio 5B:5A of specific activity (TRAP5b [2]),specificity for TRAP5b over TRAP5a compared with the commercial pNPP based assay (TRAP5b [2]),TRAP5 Specific Activity 5B (TRAP5b [2]),pH of maximal activity (pH optimum) of TRAP5a (TRAP5a [3]),5b Activity (TRAP5b [4]),Ratio of 5b:5a activity (TRAP5b [4]),"TRAP5a detected, as share of the TRAP5a detected by the pNPP-based assay (TRAP5a [5]; from specific activities, PTMP pH 7.0 vs pNPP pH 6.1)",TRAP5 Specific Activity 5A (TRAP5a [5]),5a Activity (TRAP5a [6]),pH of maximal activity (pH optimum) of TRAP5b (TRAP5b [7]),hydrolysis of substrate by TRAP5a (TRAP5a [8]),"TRAP5a detected, as share of the TRAP5a detected by the pNPP-based assay (TRAP5a [9]; peak TRAP5a fraction 53)","share of the material measured as TRAP5b that is actually TRAP5a (TRAP5a [9]; normal human serum, CM-Sepharose fractions)",pH optimum of TRAP5b (TRAP5b [10])
"O=C1OC(c2ccc(O)cc2)(c2ccc(OP(=O)(O)O)cc2)c2ccccc21 (centres unmarked) [PTMP, Phenolphthalein monophosphate]",approximately 50 times,readily hydrolyze; also recorded: hydrolised,47.5,~4.75 fold,1.68 U/μg,~6.0 pH,0.3664,33.3,20%,0.035 U/μg,0.0110,7.0 pH,readily hydrolyze; also recorded: hydrolised,16%,,
"O=P(O)(O)Oc1ccc(C2(c3ccc(O)cc3)OS(=O)(=O)c3ccccc32)cc1 (centres unmarked) [Phenol Red, Phenol Red monophosphate]",,,,,,,0.3558,53.1,,,0.0067,,,,,
"Cc1cc(O)c(C(C)C)cc1C1(c2cc(C(C)C)c(OP(=O)(O)O)cc2C)OC(=O)c2ccccc21 (centres unmarked) [TTMP, Thymolphthalein monophosphate]",approximately 70 times,readily hydrolyze; also recorded: hydrolised,65.3,~6.5 fold,2.3 U/μg,,,,,0.035 U/μg,,,readily hydrolyze; also recorded: hydrolised,,,
"O=[N+]([O-])c1ccc(OP(=O)(O)O)cc1 [pNPP, p-nitrophenyl phosphate, reference compound]",,,9 and 9.04,,1.60 U/μg,,,,,0.177 U/μg,,,,,around 40%,~5.9 pH

# Source: patent US20110105349A1, “USE OF A MONOPHOSPHATE ESTER OF A PHTHALEIN COMPOUND AS A SUBSTRATE FOR TARTRATE-RESISTANT ACID PHOSPHATASE B5 (TRAP 5B)” (MUNODIAGNOSTIC SYSTEMS LIMITED, priority 2008, published 2011)
